Assay [1] has as its target T1, human JAK1 (Homo sapiens, UniProt P23458).
T1 construct: catalytic domain, amino acids 866-1154; catalog number PV4774; purchased Invitrogen PV4774
Nature of the assay: JAK1 inhibition assay (polyGT substrate / Ulight-JAK1 peptide). The format is biochemical. The following applies: recombinant human JAK1 catalytic domain; polyGT or Ulight-JAK1 peptide assay. The gist of the method:
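Signal scaled between vehicle and 10 μM staurosporine. Radiometric polyGT reactions ran 45 min at 30 °C, counted after phosphoric-acid stop. Ulight peptide reactions ran 60 min at room temperature, fluorescence read after adding Eu-PT66 detection mix with EDTA.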

For assay [2], the target named is T2, human JAK3 (Homo sapiens, UniProt P52333).
T2 construct: catalytic domain (amino acids 781-1124; catalog number PV3855); purchased Invitrogen PV3855
T2 sequence (P52333 781-1124): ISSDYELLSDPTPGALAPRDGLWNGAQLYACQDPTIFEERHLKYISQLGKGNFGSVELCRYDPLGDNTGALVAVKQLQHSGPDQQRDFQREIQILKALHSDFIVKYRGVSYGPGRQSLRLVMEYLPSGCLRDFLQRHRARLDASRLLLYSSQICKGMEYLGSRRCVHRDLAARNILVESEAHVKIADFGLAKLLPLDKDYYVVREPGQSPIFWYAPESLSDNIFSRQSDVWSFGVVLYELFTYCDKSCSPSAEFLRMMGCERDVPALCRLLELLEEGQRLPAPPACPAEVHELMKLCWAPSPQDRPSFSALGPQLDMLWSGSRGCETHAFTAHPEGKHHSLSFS
Nature of the assay: JAK3 inhibition assay. The settings on record: recombinant human JAK3 catalytic domain; polyGT substrate. It counts as biochemical. The gist of the method:
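Radiometric kinase assay: 0.5 ng JAK3 with 2.5 μg polyGT in Tris pH 7.5/MgCl2 buffer, 1 μM ATP plus 0.25 μCi 33P-γ-ATP, 1% DMSO, 45 min at 30 °C, stopped with phosphoric acid.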

Assay [3] addresses T3, human TYK2 (Homo sapiens, UniProt P29597).
T3 construct: catalytic domain (amino acids 871-1187; catalog number 08-147); purchased Carna Biosciences 08-147
T3 sequence (P29597 871-1187): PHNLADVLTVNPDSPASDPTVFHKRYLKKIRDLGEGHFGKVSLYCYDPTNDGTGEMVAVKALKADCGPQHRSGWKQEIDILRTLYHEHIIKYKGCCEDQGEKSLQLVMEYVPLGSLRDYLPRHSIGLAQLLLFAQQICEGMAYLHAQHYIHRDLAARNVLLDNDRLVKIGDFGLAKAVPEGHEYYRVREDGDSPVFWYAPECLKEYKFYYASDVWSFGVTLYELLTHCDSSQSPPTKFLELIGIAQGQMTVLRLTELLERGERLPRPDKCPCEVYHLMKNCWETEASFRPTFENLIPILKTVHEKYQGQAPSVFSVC
The experiment in a line: TYK2 inhibition assay. The settings on record: recombinant human TYK2 catalytic domain, polyGT substrate. The format is biochemical. The gist of the method:
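Radiometric kinase reaction run 90 min at 30 °C, stopped with phosphoric acid, washed and scintillation-counted.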

For assay [4], the system named is pSTAT1(2)-luciferase reporter in HeLa cells triggered with human OSM. The experiment in a line: JAK-STAT signalling assay. It counts as cell-based. The settings on record: read-out: JAK-STAT IC50. The gist of the method: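 Compound added 60 min before 33 ng/mL (final) human OSM; after overnight stimulation at 37 °C, luciferase signal from a transiently transfected pSTAT1(2) reporter in HeLa cells was read, with LacZ as internal control. EC50 derived from percent-inhibition dose-response curves.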

Assay [5] has as its target T4, human JAK2 (Homo sapiens, UniProt O60674).
T4 construct: catalytic domain (amino acids 808-1132; catalog number PV4210); GST; purchased Invitrogen PV4210
The experiment in a line: JAK2 inhibition assay (polyGT substrate / Ulight-JAK1 peptide). The settings on record: recombinant human JAK2 catalytic domain; polyGT or Ulight-JAK1 peptide assay. It counts as biochemical. The procedure, abridged:
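Two JAK2 formats: a ^33P-ATP polyGT assay (1 μM cold ATP, 90 min, 30° C., cpm read-out) and a Ulight-JAK1 peptide assay read by Europium-anti-phosphotyrosine fluorescence after 60 min at room temperature.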

In assay [6] the test system is CTLL-2 cell line. Nature of the assay: CTLL2 viability assay. The format is cell-based. The settings on record: Mus musculus, IL-2 dependent CTLL2 viability, 24 h, ATP-lite. From the text: The protocol describes the methods to analyse the activity of compounds on their ability to sustain the IL2-dependent viability of CTLL2.
Final DMSO concentration was 0.1%.

[7] abbreviates: HeLa cells, pSTAT1(2)-luciferase reporter, human OSM 33 ng/mL.
[8] abbreviates: Homo sapiens, HeLa, HeLa cells, pSTAT1(2)-luciferase reporter, human OSM 33 ng/mL.

Where two headings read alike, the source gives them in different places.

A word on the IC50: it is the concentration at which inhibition is half-maximal.

T1 sequence (P23458 866-1154): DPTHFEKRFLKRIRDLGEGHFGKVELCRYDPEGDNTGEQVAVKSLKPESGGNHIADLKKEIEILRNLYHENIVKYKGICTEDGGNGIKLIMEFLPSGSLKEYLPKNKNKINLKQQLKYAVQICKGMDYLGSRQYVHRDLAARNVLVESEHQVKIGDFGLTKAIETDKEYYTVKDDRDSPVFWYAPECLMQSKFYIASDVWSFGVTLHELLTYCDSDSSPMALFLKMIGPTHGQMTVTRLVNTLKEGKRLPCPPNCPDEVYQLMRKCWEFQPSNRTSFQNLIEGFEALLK
T4 sequence (O60674 808-1132): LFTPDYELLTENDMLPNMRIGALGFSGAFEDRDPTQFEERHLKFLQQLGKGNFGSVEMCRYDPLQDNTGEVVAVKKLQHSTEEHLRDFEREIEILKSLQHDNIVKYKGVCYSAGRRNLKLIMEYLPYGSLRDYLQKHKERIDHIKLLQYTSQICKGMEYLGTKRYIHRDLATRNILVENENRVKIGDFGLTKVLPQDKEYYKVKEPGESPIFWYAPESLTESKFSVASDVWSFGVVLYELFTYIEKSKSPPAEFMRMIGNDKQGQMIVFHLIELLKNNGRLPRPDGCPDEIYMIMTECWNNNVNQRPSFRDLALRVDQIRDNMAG

As to `COc1cc(-c2cnn(C)c2)ncc1N(C)c1cc2c(cn1)ncn2C` [Compound 263, N-(4-methoxy-6-(1-methyl-1H-pyrazol-4-yl)pyridin-3-yl)-N,1-dimethyl-1H-imidazo[4,5-c]pyridin-6-amine], the IC50 is 501 to 1000 nM in assay [1], > 1000 nM in assay [2], > 1000 nM in assay [3] and > 1000 nM in assay [4] (setting [7]).

Take `COc1cc(C2CCN(C(=O)CC#N)CC2)ncc1N(C)c1cc2c(cn1)ncn2C` [Compound 265]: the IC50 is 501 to 1000 nM in assay [1], > 1000 nM in assay [2], > 1000 nM in assay [3] and > 1000 nM in assay [4] (setting [7]).

For `CCN(c1cc2c(cn1)ncn2C)c1ccc(C#N)cc1F` [Compound 266, 4-(ethyl(1-methyl-1H-imidazo[4,5-c]pyridin-6-yl)amino)-3-fluorobenzonitrile], the IC50 in assay [1], in assay [2], in assay [3] and in assay [4] (setting [8]) was > 1000 nM each time.

Regarding `CN(c1cc2c(cn1)ncn2C)c1ccc(C#N)cc1F` [Compound 267, 3-fluoro-4-(methyl(1-methyl-1H-imidazo[4,5-c]pyridin-6-yl)amino)benzonitrile], the IC50 in assay [1] is 501 to 1000 nM; in assay [2], > 1000 nM; in assay [3], > 1000 nM; in assay [4] (setting [8]) it was > 1000 nM.

As to `CCc1cc(CNC(=O)NC)ccc1N(C)c1cc2c(cn1)ncn2C` [Compound 270, 1-(3-ethyl-4-(methyl(1-methyl-1H-imidazo[4,5-c]pyridin-6-yl)amino)benzyl)-3-methylurea], the IC50 in assay [1] is 101 to 500 nM; in assay [2], > 1000 nM; in assay [3] it was > 1000 nM; in assay [4] (setting [8]), > 1000 nM.

`CCc1cc(OC)ccc1N(C)c1cc2c(cn1)ncn2C` [Compound 271, N-(2-ethyl-4-methoxyphenyl)-N,1-dimethyl-1H-imidazo[4,5-c]pyridin-6-amine]: the IC50 lay within 0.01 to 100 nM in assay [1], 501 to 1000 nM in assay [2], 0.01 to 100 nM in assay [3] and 1 to 500 nM in assay [4] (setting [8]).

With `CCOc1ccc(N(C)c2cc3c(cn2)ncn3C)c(CC)c1` [Compound 272, N-(4-ethoxy-2-ethylphenyl)-N,1-dimethyl-1H-imidazo[4,5-c]pyridin-6-amine], the IC50 in assay [1] fell in the range of 0.01 to 100 nM; in assay [2] it was 501 to 1000 nM; in assay [3] it was 0.01 to 100 nM; in assay [4] (setting [8]), 501 to 1000 nM.

For `COc1cc(C2CCN(S(C)(=O)=O)CC2)ncc1N(C)c1cc2c(cn1)ncn2C` [Compound 276], the IC50 in assay [1] was 0.01 to 100 nM; in assay [2], > 1000 nM; in assay [3] it was > 1000 nM; in assay [4] (setting [7]), > 1000 nM.

With `CN(c1cc2c(cn1)ncn2C)c1ccc(C2CN(S(C)(=O)=O)C2)cc1F` [Compound 277, [2-Fluoro-4-(1-methanesulfonyl-azetidin-3-yl)-phenyl]-methyl-(1-methyl-1H-imidazo[4,5-c]pyridin-6-yl)-amine], the IC50 in assay [1] was 0.01 to 100 nM; in assay [2], 101 to 500 nM; in assay [3] it was 501 to 1000 nM; in assay [4] (setting [7]), > 1000 nM.

Regarding `COC(=O)NCc1ccc(N(C)c2cc3c(cn2)ncn3C)c(F)c1` [Compound 283, {3-Fluoro-4-[methyl-(1-methyl-1H-imidazo[4,5-c]pyridin-6-yl)-amino]-benzyl}-carbamic acid methyl ester], the IC50 was 0.01 to 100 nM in assay [1], > 1000 nM in assay [2], 101 to 500 nM in assay [3] and > 1000 nM in assay [4] (setting [8]).

On to `CCc1ccccc1N(CC(F)F)c1cc2c(cn1)ncn2C` [Compound 284, (2,2-Difluoro-ethyl)-(2-ethyl-phenyl)-(1-methyl-1H-imidazo[4,5-c]pyridin-6-yl)-amine], for which the IC50 in assay [1] was 0.01 to 100 nM; in assay [2] it was 101 to 500 nM; in assay [3] it was 0.01 to 100 nM; in assay [4] (setting [8]), 501 to 1000 nM.

On to `CN(c1cc2c(cn1)ncn2C)c1ccc(C2CCN(S(C)(=O)=O)CC2)cc1OC(F)F` [Compound 287, N-(2-(Difluoromethoxy)-4-(1-(methylsulfonyl)piperidin-4-yl)phenyl)-N,1-dimethyl-1H-imidazo[4,5-c]pyridin-6-amine], for which the IC50 in assay [1] fell in the range of 0.01 to 100 nM; in assay [2] it was 0.01 to 100 nM; in assay [3] it was 0.01 to 100 nM; in assay [4] (setting [7]) it was 1 to 500 nM.

Turning to `CCc1cc(OCC#N)ccc1N(C)c1cc2c(cn1)ncn2C` [Compound 295, 2-(3-ethyl-4-(methyl(1-methyl-1H-imidazo[4,5-c]pyridin-6-yl)amino)phenoxy)acetonitrile], the IC50 was in the range of 0.01 to 100 nM in assay [1]; 101 to 500 nM in assay [2]; 0.01 to 100 nM in assay [3]; 1 to 500 nM in assay [4] (Homo sapiens, HeLa).

For `CN(c1cc2c(cn1)ncn2C)c1ccc(C2CN(CC(F)F)C2)cc1OC(F)F` [Compound 365, {4-[1-(2,2-Difluoro-ethyl)-azetidin-3-yl]-2-difluoromethoxy-phenyl}-methyl-(1-methyl-1H-imidazo[4,5-c]pyridin-6-yl)-amine], the IC50 in assay [1] was 0.01 to 100 nM; in assay [5], 101 to 500 nM; in assay [2], 101 to 500 nM; in assay [3], 501 to 1000 nM; in assay [6], > 1000 nM.

Turning to `CN(c1cc2c(cn1)ncn2C)c1ccc(C2CN(S(=O)(=O)N3CCCCC3)C2)cc1OC(F)F` [Compound 372, {2-Difluoromethoxy-4-[1-(piperidine-1-sulfonyl)-azetidin-3-yl]-phenyl}-methyl-(1-methyl-1H-imidazo[4,5-c]pyridin-6-yl)-amine], the IC50 was 0.01 to 100 nM in assay [1]; 101 to 500 nM in assay [5]; 501 to 1000 nM in assay [2]; 101 to 500 nM in assay [3]; > 1000 nM in assay [6].

In the case of `CC(C)S(=O)(=O)N1CC(c2ccc(N(C)c3cc4c(cn3)ncn4C)c(OC(F)F)c2)C1` [Compound 373, {2-Difluoromethoxy-4-[1-(propane-2-sulfonyl)-azetidin-3-yl]-phenyl}-methyl-(1-methyl-1H-imidazo[4,5-c]pyridin-6-yl)-amine], the IC50 in assay [1] was 0.01 to 100 nM; in assay [5] it was 101 to 500 nM; in assay [2] it was 501 to 1000 nM; in assay [3], > 1000 nM; in assay [6], > 1000 nM.

For `CCc1cc(C2CCN(CC#N)CC2)ncc1N(C)c1cc2c(cn1)ncn2C` [Compound 384, {4-Ethyl-5-(methyl-(1-methyl-1H-imidazo[4,5-c]pyridin-6-yl)-amino)-3′,4′,5′,6′-tetrahydro-2′H-(2,4′]bipyridinyl-1′-yl}-acetonitrile], the IC50 was 0.01 to 100 nM in assay [1]; 101 to 500 nM in assay [5]; > 1000 nM in assay [2]; 101 to 500 nM in assay [3]; > 1000 nM in assay [6].

As to `CCc1cc(N2CC[C@@H](F)C2)ncc1N(C)c1cc2c(cn1)ncn2C` [Compound 414, [4-Ethyl-6-((R)-3-fluoro-pyrrolidin-1-yl)-pyridin-3-yl]-methyl-(1-methyl-1H-imidazo[4,5-c]pyridin-6-yl)-amine], the IC50 is 0.01 to 100 nM in assay [1]; 0.01 to 100 nM in assay [5]; 101 to 500 nM in assay [2]; 0.01 to 100 nM in assay [3]; > 1000 nM in assay [6].

With `CCc1cc(N2CC[C@H](F)C2)ncc1N(C)c1cc2c(cn1)ncn2C` [Compound 415, [4-Ethyl-6-((S)-3-fluoro-pyrrolidin-1-yl)-pyridin-3-yl]-methyl-(1-methyl-1H-imidazo[4,5-c]pyridin-6-yl)-amine], the IC50 in assay [1] is 0.01 to 100 nM; in assay [5], 0.01 to 100 nM; in assay [2] it was 0.01 to 100 nM; in assay [3], 0.01 to 100 nM; in assay [6], > 1000 nM.

The record behind these values is patent US20130217664A1, “NOVEL COMPOUNDS USEFUL FOR THE TREATMENT OF DEGENERATIVE AND INFLAMMATORY DISEASES” (priority 2012, published 2013).
